Test results: patent US7846959B2, “Raf modulators and methods of use” (Exelixis, Inc., priority 2004, dated 2010)
Read-outs that look alike come from different tables or passages of the source.

Assays:
B-Raf = B-Raf (Homo sapiens, UniProt P15056); experiment: Luciferase-coupled chemiluminescence kinase assay (ATP consumption), B-Raf; format: biochemical
How it was run: (§1)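 Read-out: percent ATP consumed, quantified by luciferase/luciferin chemiluminescence after the kinase step. ATP consumption was held at 25-60%. Kinase ([…]) plus compound were preincubated 30 min at RT in Tris pH 7.5 buffer with MgCl2, Triton and DTT, then reacted with ATP for 3 h.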

c-Raf = c-Raf (Homo sapiens, UniProt P04049); experiment: Luciferase-coupled chemiluminescence kinase assay (ATP consumption), c-Raf; format: biochemical
Chain of c-Raf (P04049 whole entry): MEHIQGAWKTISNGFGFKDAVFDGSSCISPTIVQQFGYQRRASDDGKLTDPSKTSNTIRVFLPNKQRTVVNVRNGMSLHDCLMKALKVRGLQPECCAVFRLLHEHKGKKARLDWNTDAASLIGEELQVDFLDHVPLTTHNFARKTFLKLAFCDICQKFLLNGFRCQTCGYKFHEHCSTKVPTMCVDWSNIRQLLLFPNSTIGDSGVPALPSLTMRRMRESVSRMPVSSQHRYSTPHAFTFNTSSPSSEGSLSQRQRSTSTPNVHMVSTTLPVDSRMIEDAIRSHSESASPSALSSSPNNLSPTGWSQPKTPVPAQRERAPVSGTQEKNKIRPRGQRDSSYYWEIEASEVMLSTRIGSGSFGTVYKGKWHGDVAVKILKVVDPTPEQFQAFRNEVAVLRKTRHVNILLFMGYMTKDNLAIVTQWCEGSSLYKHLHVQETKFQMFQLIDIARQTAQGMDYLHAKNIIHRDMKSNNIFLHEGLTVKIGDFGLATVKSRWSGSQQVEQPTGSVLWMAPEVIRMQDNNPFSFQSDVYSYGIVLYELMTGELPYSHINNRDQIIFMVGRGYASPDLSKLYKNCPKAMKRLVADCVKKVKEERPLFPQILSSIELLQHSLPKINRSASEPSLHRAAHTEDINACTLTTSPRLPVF
How it was run: as §1

[1] = read-out: bRaf (inhibition indicated as IC50)
[2] = read-out: cRaf-1 (inhibition indicated as IC50)

Chain of B-Raf (P15056 whole entry): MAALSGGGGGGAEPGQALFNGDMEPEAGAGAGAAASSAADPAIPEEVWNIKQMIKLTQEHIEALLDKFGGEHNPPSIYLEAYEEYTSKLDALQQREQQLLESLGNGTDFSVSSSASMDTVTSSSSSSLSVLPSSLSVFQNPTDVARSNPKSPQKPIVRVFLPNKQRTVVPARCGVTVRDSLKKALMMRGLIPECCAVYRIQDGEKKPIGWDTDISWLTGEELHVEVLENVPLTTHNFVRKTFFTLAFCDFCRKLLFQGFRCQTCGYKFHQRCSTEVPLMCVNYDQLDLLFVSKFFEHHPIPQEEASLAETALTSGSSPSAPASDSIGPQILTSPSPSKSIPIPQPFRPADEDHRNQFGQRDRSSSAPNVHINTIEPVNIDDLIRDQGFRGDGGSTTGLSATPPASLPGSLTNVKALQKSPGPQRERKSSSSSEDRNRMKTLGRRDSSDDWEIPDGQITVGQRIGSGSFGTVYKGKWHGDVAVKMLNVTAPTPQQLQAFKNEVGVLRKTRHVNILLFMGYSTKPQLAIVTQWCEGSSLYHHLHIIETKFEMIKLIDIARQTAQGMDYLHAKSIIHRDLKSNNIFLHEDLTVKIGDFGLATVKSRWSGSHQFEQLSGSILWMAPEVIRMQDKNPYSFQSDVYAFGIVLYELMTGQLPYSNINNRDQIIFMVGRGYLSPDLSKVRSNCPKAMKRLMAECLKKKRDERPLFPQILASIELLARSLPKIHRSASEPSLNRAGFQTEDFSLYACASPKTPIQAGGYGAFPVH

Compound	IC50 (B-Raf; read-out: bRaf IC50)	IC50 (c-Raf; read-out: cRaf-1 IC50)	IC50 (B-Raf; [1])	IC50 (c-Raf; [2])
COC(=O)Nc1nc2cc(C3(O)c4ccccc4C(=O)N3c3cc(F)ccc3F)ccc2[nH]1 (stereo not drawn) [Entry 168, methyl {5-[2-(2,5-difluorophenyl)-1-hydroxy-3-oxo-2,3-dihydro-1H-isoindol-1-yl]-1H-benzimidazol-2-yl}carbamate]	< 100 nM	< 100 nM	–	–
COC(=O)Nc1nc2cc(C3(O)c4ccccc4C(=O)N3Cc3ccccn3)ccc2[nH]1 (stereo not drawn) [Entry 124, methyl {5-[1-hydroxy-3-oxo-2-(pyridin-2-ylmethyl)-2,3-dihydro-1H-isoindol-1-yl]-1H-benzimidazol-2-yl}carbamate]	100 to 1000 nM	100 to 1000 nM	–	–
O=C(CCCN1CCCCC1)Nc1nc2cc(C3(O)c4ccccc4C(=O)N3c3ccc(F)cc3)ccc2[nH]1 (stereo not drawn) [Entry 287, N-{5-[2-(4-fluorophenyl)-1-hydroxy-3-oxo-2,3-dihydro-1H-isoindol-1-yl]-1H-benzimidazol-2-yl}-4-piperidin-1-ylbutanamide]	–	–	< 100 nM	< 100 nM
COC(=O)Nc1nc2cc(C3(O)c4ccccc4C(=O)N3c3cc(OC)ccc3F)ccc2[nH]1 (stereo not drawn) [Entry 381, methyl (5-{2-[2-fluoro-5-(methyloxy)phenyl]-1-hydroxy-3-oxo-2,3-dihydro-1H-isoindol-1-yl}-1H-benzimidazol-2-yl)carbamate]	–	–	< 100 nM	< 100 nM
COC(=O)Nc1nc2ccc(C3(C)c4ccccc4C(=O)N3c3cccc(C(F)(F)F)c3)cc2[nH]1 (stereo not drawn) [Entry 254, methyl (6-{1-methyl-3-oxo-2-[3-(trifluoromethyl)phenyl]-2,3-dihydro-1H-isoindol-1-yl}-1H-benzimidazol-2-yl)carbamate]	< 100 nM	< 100 nM	–	–
O=C(CCCN1CCCCC1)Nc1nc2cc(C3(O)c4ccccc4C(=O)N3c3cccc(Cl)c3F)ccc2[nH]1 (stereo not drawn) [Entry 288, N-{5-[2-(3-chloro-2-fluorophenyl)-1-hydroxy-3-oxo-2,3-dihydro-1H-isoindol-1-yl]-1H-benzimidazol-2-yl}-4-piperidin-1-ylbutanamide]	–	–	< 100 nM	< 100 nM
CC[C@H](c1ccccc1)N1C(=O)c2ccccc2C1(O)c1ccc2[nH]c(NC(=O)OC)nc2c1 (stereo partly drawn) [Entry 182, methyl (5-{1-hydroxy-3-oxo-2-[(1R)-1-phenylpropyl]-2,3-dihydro-1H-isoindol-1-yl}-1H-benzimidazol-2-yl)carbamate]	100 to 1000 nM	100 to 1000 nM	–	–
O=C(Nc1nc2ccc(C3(O)c4ccccc4C(=O)N3c3cccc(Cl)c3F)cc2[nH]1)OCC1CC1 (stereo not drawn) [Entry 334, cyclopropylmethyl {6-[2-(3-chloro-2-fluorophenyl)-1-hydroxy-3-oxo-2,3-dihydro-1H-isoindol-1-yl]-1H-benzimidazole-2-yl}carbamate]	–	–	< 100 nM	< 100 nM
COC(=O)Nc1nc2ccc(C3(O)c4c(F)ccc(F)c4C(=O)N3c3cccc(Cl)c3F)cc2[nH]1 (stereo not drawn) [Entry 339, methyl {6-[2-(3-chloro-2-fluorophenyl)-4,7-difluoro-1-hydroxy-3-oxo-2,3-dihydro-1H-isoindol-1-yl]-1H-benzimidazol-2-yl}carbamate]	–	–	< 100 nM	< 100 nM
COC(=O)Nc1nc2cc(C3(O)c4ccccc4C(=O)N3c3cc(Cl)ccc3F)ccc2[nH]1 (stereo not drawn) [Entry 197, methyl {5-[2-(5-chloro-2-fluorophenyl)-1-hydroxy-3-oxo-2,3-dihydro-1H-isoindol-1-yl]-1H-benzimidazol-2-yl}carbamate]	< 100 nM	< 100 nM	–	–
C#Cc1cccc(NC(=O)c2ccccc2C(=O)c2ccc3nc(NC(=O)OC)[nH]c3c2)c1F [Entry 414, methyl {6-[(2-{[(3-ethynyl-2-fluorophenyl)amino]carbonyl}phenyl)carbonyl]-1H-benzimidazol-2-yl}carbamate]	–	–	< 100 nM	< 100 nM
CN1CCCC(COC(=O)Nc2nc3ccc(C4(O)c5ccccc5C(=O)N4c4cccc(Cl)c4F)cc3[nH]2)C1 (stereo not drawn) [Entry 309, (1-methylpiperidin-3-yl)methyl {6-{2-(3-chloro-2-fluorophenyl)-1-hydroxy-3-oxo-2,3-dihydro-1H-isoindol-1-yl]-1H-benzimidazol-2-yl}carbamate]	–	–	< 100 nM	< 100 nM
O=C1c2ccccc2C(O)(c2ccc3[nH]c(NC(=O)C(O)(C(F)(F)F)C(F)(F)F)nc3c2)N1Cc1ccccc1 (stereo not drawn) [Entry 208, 3,3,3-trifluoro-2-hydroxy-N-{5-[1-hydroxy-3-oxo-2-(phenylmethyl)-2,3-dihydro-1H-isoindol-1-yl]-1H-benzimidazol-2-yl}-2-(trifluoromethyl)propanamide]	1000 to 10000 nM	1000 to 10000 nM	–	–
COC(=O)Nc1nc2ccc(C3(O)c4ccccc4C(=O)N3c3cccc(C)c3F)cc2[nH]1 (stereo not drawn) [Entry 390, methyl {6-[2-(2-fluoro-3-methylphenyl)-1-hydroxy-3-oxo-2,3-dihydro-1H-isoindol-1-yl]-1H-benzimidazol-2-yl}carbamate]	–	–	< 100 nM	< 100 nM
COC(=O)Nc1nc2cc(C3(O)c4ccccc4C(=O)N3c3cc(Cl)c(F)cc3F)ccc2[nH]1 (stereo not drawn) [Entry 245, methyl {5-[2-(5-chloro-2,4-difluorophenyl)-1-hydroxy-3-oxo-2,3-dihydro-1H-isoindol-1-yl]-1H-benzimidazol-2-yl}carbamate]	< 100 nM	< 100 nM	–	–
O=C(Nc1nc2ccc(C3(O)c4ccccc4C(=O)N3Cc3ccccc3)cc2[nH]1)C1CC1(F)F (stereo not drawn) [Entry 259, 2,2-difluoro-N-{6-[1-hydroxy-3-oxo-2-(phenylmethyl)-2,3-dihydro-1H-isoindol-1-yl]-1H-benzimidazol-2-yl}cyclopropanecarboxamide]	< 100 nM	< 100 nM	–	–
O=C1COc2ccc(C3(O)c4ccccc4C(=O)N3Cc3ccccc3F)cc2N1 (stereo not drawn) [Entry 38, 6-{2-[(2-fluorophenyl)methyl]-1-hydroxy-3-oxo-2,3-dihydro-1H-isoindol-1-yl}-2H-1,4-benzoxazin-3(4H)-one]	≥ 10000 nM	1000 to 10000 nM	–	–
C#Cc1cccc(N2C(=O)c3cccc(F)c3C2(O)c2ccc3[nH]c(NC(=O)OC)nc3c2)c1F (stereo not drawn) [Entry 369, methyl {5-[2-(3-ethynyl-2-fluorophenyl)-7-fluoro-1-hydroxy-3-oxo-2,3-dihydro-1H-isoindol-1-yl]-1H-benzimidazol-2-yl}carbamate]	–	–	< 100 nM	< 100 nM
COC(=O)Nc1nc2cc(C3(O)c4ccccc4C(=O)N3c3c(F)ccc(Cl)c3F)ccc2[nH]1 (stereo not drawn) [Entry 322, methyl {5-[2-(3-chloro-2,6-difluorophenyl)-1-hydroxy-3-oxo-2,3-dihydro-1H-isoindol-1-yl]-1H-benzimidazol-2-yl}carbamate]	–	–	< 100 nM	< 100 nM
Nc1ccccc1N1C(=O)c2ccccc2C1(O)c1ccc2c(c1)NC(=O)CO2 (stereo not drawn) [Entry 47, 6-[2-(2-aminophenyl)-1-hydroxy-3-oxo-2,3-dihydro-1H-isoindol-1-yl]-2H-1,4-benzoxazin-3(4H)-one]	100 to 1000 nM	100 to 1000 nM	–	–
COC(=O)Nc1nc2cc(C3(O)c4ccccc4C(=O)N3c3cccc(C4CCNCC4)c3)ccc2[nH]1 (stereo not drawn) [Entry 256, methyl {5-[1-hydroxy-3-oxo-2-(3-piperidin-4-ylphenyl)-2,3-dihydro-1H-isoindol-1-yl]-1H-benzimidazol-2-yl}carbamate]	100 to 1000 nM	100 to 1000 nM	–	–
